Consider two molecules from ChEMBL document CHEMBL1126639, “Centrally acting serotonergic and dopaminergic agents. 2. Synthesis and structure-activity relationships of 2,3,3a,4,9,9a-hexahydro-1H-benz[f]indole derivatives” (J Med Chem, 1993).

For experiment [1], the species on record is Rattus norvegicus. The experiment can be described thus: Effect on the synthesis rates of serotonin (5-HTP accumulation) in the rat ventral limbic brain region […]. The experiment is classed as functional, Limbic system.
In experiment [2] the test system is Mus musculus. Description: Antagonism of apomorphine for 10-20 minutes in reserpinized mice when a dose of 3.7 micro mol/kg is administered intraperitoneally. The experiment is classed as functional.
In experiment [3] the test system is Mus musculus. Description: Ability to stimulate dopaminergic systems by effect on locomotor activity in reserpinized mice when a dose of 37 micro mol/kg is administered intraperitoneally. The format is functional.
Experiment [4] concerns Mus musculus. Description: Ability to stimulate dopaminergic systems by effect on locomotor activity in reserpinized mice when a dose of 0.4 micro mol/kg is administered intraperitoneally. The format is functional.
The subject of experiment [5] is Mus musculus. Description: Antagonism of apomorphine for 10-20 minutes in reserpinized mice when a dose of 0.4 micro mol/kg is administered intraperitoneally. The format is functional.
Experiment [6] deals with Mus musculus. The experiment can be described thus: Antagonism of apomorphine in reserpinized mice when a dose of 3.7 micro mol/kg is administered intraperitoneally. The format is functional.
Experiment [7] has as its system Rattus norvegicus. Description: Effect on the synthesis rates of dopamine (DOPA accumulation) in the rat ventral limbic brain region at 3.7 uM/kg. The format is functional, Limbic system.
The subject of experiment [8] is Rattus norvegicus. The experiment can be described thus: Inhibition of firing rates of dopaminergic neurons in the substantia nigra pars compacta by intravenous injection in rats. The format is functional.
The test system of experiment [9] is Mus musculus. The experiment can be described thus: Antagonism of apomorphine in reserpinized mice when a dose of 0.4 micro mol/kg is administered intraperitoneally. The experiment is classed as functional.
Experiment [10] has as its system Rattus norvegicus. Description: Inhibition of firing rates of dopaminergic neurons in the substantia nigra pars compacta by intravenous injection in rats. The experiment is classed as functional.
In experiment [11] the target is T1, D(2) dopamine receptor (Homo sapiens, UniProt P14416). Description: Intrinsic activity from GTP shift using CHO cell membranes expressing dopamine receptor D2. The format is functional.
The subject of experiment [12] is Mus musculus. The experiment can be described thus: Antagonism of apomorphine for 0-10 minutes in reserpinized mice when a dose of 3.7 micro mol/kg is administered intraperitoneally. The experiment is classed as functional.
Experiment [13] concerns Mus musculus. Description: Ability to stimulate dopaminergic systems by effect on locomotor activity in reserpinized mice when a dose of 3.7 micro mol/kg is administered intraperitoneally. The format is functional.
Experiment [14] has as its system Mus musculus. The experiment can be described thus: Antagonism of apomorphine for 0-10 minutes in reserpinized mice when a dose of 0.4 micro mol/kg is administered intraperitoneally. The experiment is classed as functional.
In experiment [15] the test system is Mus musculus. The experiment can be described thus: Antagonism of apomorphine in reserpinized mice when a dose of 37 micro mol/kg is administered intraperitoneally. The experiment is classed as functional.
The test system of experiment [16] is Mus musculus. The experiment can be described thus: Antagonism of apomorphine for 0-10 minutes in reserpinized mice when a dose of 37 micro mol/kg is administered intraperitoneally. The format is functional.
The target of experiment [17] is D(2) dopamine receptor (Rattus norvegicus, UniProt P61169). Description: Binding affinity for [3H]raclopride-labeled dopamine receptor D2 in rat striatum. The format is tissue-based.
The subject of experiment [18] is Mus musculus. The experiment can be described thus: Antagonism of apomorphine for 10-20 minutes in reserpinized mice when a dose of 37 micro mol/kg is administered intraperitoneally. The experiment is classed as functional.
The target in experiment [19] is T1, D(2) dopamine receptor. The experiment can be described thus: Binding affinity against [3H]U-86,170-labeled dopamine receptor D2 in cloned CHO cells. The format is cell-based.
Experiment [20] relates to Mus musculus. The experiment can be described thus: Antagonism of apomorphine for 10-20 minutes in reserpinized mice when a dose of 38 micro mol/kg is administered intraperitoneally. The format is functional.
For experiment [21], the system named is Mus musculus. The experiment can be described thus: Antagonism of apomorphine for 10-20 minutes in reserpinized mice when a dose of 3.8 micro mol/kg is administered intraperitoneally. The format is functional.
In experiment [22] the test system is Mus musculus. The experiment can be described thus: Ability to stimulate dopaminergic systems by effect on locomotor activity in reserpinized mice when a dose of 3.8 micro mol/kg is administered intraperitoneally. The format is functional.
The test system of experiment [23] is Mus musculus. Description: Antagonism of apomorphine in reserpinized mice when a dose of 3.8 micro mol/kg is administered intraperitoneally. The experiment is classed as functional.
Experiment [24] has as its system Mus musculus. Description: Antagonism of apomorphine for 0-10 minutes in reserpinized mice when a dose of 38 micro mol/kg is administered intraperitoneally. The format is functional.
Experiment [25] relates to Mus musculus. The experiment can be described thus: Antagonism of apomorphine in reserpinized mice when a dose of 38 micro mol/kg is administered intraperitoneally. The experiment is classed as functional.
Experiment [26] concerns Rattus norvegicus. The experiment can be described thus: Inhibition of firing rates of serotonergic neurons in the dorsal raphe nucleus by intravenous injection in rats. The format is functional. As to conditions: Rattus norvegicus, Dorsal raphe nucleus, iv; read-out: ED50.
The subject of experiment [27] is Mus musculus. Description: Ability to stimulate dopaminergic systems by effect on locomotor activity in reserpinized mice when a dose of 38 micro mol/kg is administered intraperitoneally. The format is functional.
In experiment [28] the test system is Mus musculus. Description: Antagonism of apomorphine for 0-10 minutes in reserpinized mice when a dose of 3.8 micro mol/kg is administered intraperitoneally. The experiment is classed as functional.

Molecules are shown by their SMILES.

T1 sequence (P14416 whole entry): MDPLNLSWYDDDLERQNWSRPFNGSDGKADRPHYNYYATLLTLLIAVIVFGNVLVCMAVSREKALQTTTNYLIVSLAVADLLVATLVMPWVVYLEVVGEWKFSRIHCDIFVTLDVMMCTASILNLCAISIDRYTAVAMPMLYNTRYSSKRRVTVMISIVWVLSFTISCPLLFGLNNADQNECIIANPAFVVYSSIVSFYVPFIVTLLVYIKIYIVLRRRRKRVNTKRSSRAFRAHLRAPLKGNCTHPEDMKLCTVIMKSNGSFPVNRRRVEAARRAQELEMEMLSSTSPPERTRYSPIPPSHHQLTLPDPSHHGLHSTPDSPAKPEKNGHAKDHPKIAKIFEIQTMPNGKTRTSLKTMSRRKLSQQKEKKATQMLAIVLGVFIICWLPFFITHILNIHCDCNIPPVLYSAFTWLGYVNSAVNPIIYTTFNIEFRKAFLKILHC
D(2) dopamine receptor (Rattus norvegicus, UniProt P61169), sequence (P61169 whole entry): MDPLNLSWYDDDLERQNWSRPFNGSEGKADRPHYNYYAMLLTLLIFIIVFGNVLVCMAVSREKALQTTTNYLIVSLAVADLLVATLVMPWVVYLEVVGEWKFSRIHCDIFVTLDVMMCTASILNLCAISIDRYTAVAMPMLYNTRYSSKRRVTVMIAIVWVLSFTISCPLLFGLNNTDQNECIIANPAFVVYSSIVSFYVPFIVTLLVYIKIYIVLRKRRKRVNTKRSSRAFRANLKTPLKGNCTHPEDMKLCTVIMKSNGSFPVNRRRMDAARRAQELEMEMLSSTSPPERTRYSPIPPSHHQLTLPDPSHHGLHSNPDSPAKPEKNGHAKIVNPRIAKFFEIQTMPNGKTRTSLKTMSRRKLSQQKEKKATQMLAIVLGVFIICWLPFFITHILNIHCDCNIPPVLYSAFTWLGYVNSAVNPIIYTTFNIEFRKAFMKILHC

Consider `CCCN1CC[C@H]2Cc3c(O)cccc3C[C@@H]21`, for which the Control in experiment [1] is listed as 12%; in experiment [7] it was 20%. Besides, the Locomotor activity in [2] amounted to 119; in [3], 113; in experiment [4], 45; in [5], 119; in experiment [6] it was 86; in experiment [9], 81. Moreover, the Locomotor activity worked out at 109 in experiment [12]; 1 in [13]; 121 in experiment [14]; 77 in experiment [15]; 84 in experiment [16]; 103 in experiment [18]. The median effective dose (ED50) in experiment [8] and in experiment [10] was above 3.73 µmol/kg in each case. In experiment [11], the Intrinsic activity is 18%. Further, the figures for the inhibition constant (Ki) in experiment [17] and in [19] were above 630 nM and 917 nM, respectively.

For `C=CCN1CC[C@@H]2Cc3c(O)cccc3C[C@H]21` (racemic), the Locomotor activity in [20] was determined as 46; in experiment [4], 450; in experiment [5] it was 77; in experiment [21] it was 54; in [22], 1409; in [9], 108. For the same molecule, the Locomotor activity amounted to 133 in experiment [23]; 55 in [24]; 123 in experiment [25]; 61 in experiment [14]; 1783 in experiment [27]; 40 in experiment [28]. In addition, the median effective dose (ED50) was determined as 0.007 µmol/kg in experiment [8] and 0.35 µmol/kg in experiment [26]. For the same molecule, the Ki amounted to 47 nM in [17] and 235 nM in [19].
